{"source": "patent US12653797B2", "about": "“Tablet and method for manufacturing same” (AYUMI PHARMACEUTICAL CORPORATION, priority 2020, dated 2026)"}
{"experiment": "Measurement of the particle diameter of the acetaminophen active pharmaceutical ingredients (dry laser diffraction)", "format": "physicochemical", "conditions": "dispersion air pressure 0.5 bar", "description": "There may be some differences between manufacturing lots. In addition, the volume-average particle diameter (MV) of the present acetaminophen active pharmaceutical ingredient can be in the range from 100 to 350 μm and may be in the range from 120 to 330 μm. There may be some differences between manufacturing lots. The particle size distribution in the present invention is acquired by evaluation of the volumetric distribution using dry particle diameter measurement by a laser diffraction method (Laser Micron Sizer LMS-2000e (Seishin Enterprise Co., Ltd.)). D50 is the particle diameter at the 50% accumulation of the individual volumes from the small diameter side of the particle size distribution, and is referred to as the median particle diameter. (3) Measurement of the Particle Diameter of the Acetaminophen Active Pharmaceutical Ingredients The acetaminophen active pharmaceutical ingredients were subjected to dry measurement of the particle diameter by a laser diffraction method. A Laser Micron Sizer LMS-2000e (Seishin Enterprise Co., Ltd.) was used for measurement of the particle size distribution. The measurement was carried out at a dispersion compressed air pressure of 0.5 bar.", "units": {"D10": "μm", "D50 (median particle diameter)": "μm", "D90": "μm", "MV (volume-average particle diameter)": "μm"}}
{"smiles": "CC(=O)Nc1ccc(O)cc1", "note": "[AA API a, acetaminophen]", "D10": 73, "D50 (median particle diameter)": 224, "D90": 404, "MV (volume-average particle diameter)": 234}
{"smiles": "CC(=O)Nc1ccc(O)cc1", "note": "[AA API b, acetaminophen]", "D10": 62, "D50 (median particle diameter)": 191, "D90": 353, "MV (volume-average particle diameter)": 202}
{"smiles": "CC(=O)Nc1ccc(O)cc1", "note": "[AA API c, acetaminophen]", "D10": 27, "D50 (median particle diameter)": 147, "D90": 357, "MV (volume-average particle diameter)": 173}
{"smiles": "CC(=O)Nc1ccc(O)cc1", "note": "[AA API d, acetaminophen]", "D10": 75, "D50 (median particle diameter)": 419, "D90": 855, "MV (volume-average particle diameter)": 452}
{"smiles": "CC(=O)Nc1ccc(O)cc1", "note": "[AA API e, acetaminophen]", "D10": 5.7, "D50 (median particle diameter)": 26, "D90": 116, "MV (volume-average particle diameter)": 46}
{"smiles": "CC(=O)Nc1ccc(O)cc1", "note": "[AA API f, acetaminophen]", "D10": 42, "D50 (median particle diameter)": 202, "D90": 426, "MV (volume-average particle diameter)": 222}
{"smiles": "CC(=O)Nc1ccc(O)cc1", "note": "[AA API g, acetaminophen]", "D10": 125, "D50 (median particle diameter)": 288, "D90": 516, "MV (volume-average particle diameter)": 306}
